Data from patent US20060223792A1, “Phenyl and pyridyl LTA4H modulators” (priority 2005, published 2006).

Target: T1, recombinant human LTA4 hydrolase (rhLTA4H) (Homo sapiens, UniProt P09960)
T1 construct: made in house; host or cells: Spodoptera frugiperda (Sf-9) cells, baculovirus (pFastBac1)
T1 sequence (P09960 1-611): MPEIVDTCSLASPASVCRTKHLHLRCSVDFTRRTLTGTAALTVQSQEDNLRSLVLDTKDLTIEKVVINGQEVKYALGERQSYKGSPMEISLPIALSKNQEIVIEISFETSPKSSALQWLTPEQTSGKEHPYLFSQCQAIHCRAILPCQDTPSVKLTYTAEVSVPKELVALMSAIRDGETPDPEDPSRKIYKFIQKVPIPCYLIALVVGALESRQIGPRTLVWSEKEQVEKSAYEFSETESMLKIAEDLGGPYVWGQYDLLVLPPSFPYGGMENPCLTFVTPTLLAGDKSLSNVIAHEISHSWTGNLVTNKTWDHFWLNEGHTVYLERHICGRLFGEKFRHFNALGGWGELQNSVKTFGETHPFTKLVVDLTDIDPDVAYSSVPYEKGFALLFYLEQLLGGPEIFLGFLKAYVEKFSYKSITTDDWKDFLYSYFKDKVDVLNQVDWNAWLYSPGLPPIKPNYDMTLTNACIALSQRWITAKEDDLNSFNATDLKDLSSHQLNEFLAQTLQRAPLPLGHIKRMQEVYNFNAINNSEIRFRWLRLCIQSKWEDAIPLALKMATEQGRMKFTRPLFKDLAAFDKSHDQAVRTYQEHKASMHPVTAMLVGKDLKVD
Experiment: Recombinant human LTA4 hydrolase assay for LTA4 hydrolase inhibitor activity
Type: biochemical
Settings: recombinant human LTA4H, LTB4 quantified by enzyme-linked immunoassay; average of one to three determinations; read-out: IC50
Method: Recombinant Human LTA4 Hydrolase Assay for LTA4 Hydrolase Inhibitor Activity
Compounds of the present invention were tested for LTA4 hydrolase inhibitor activity against recombinant human LTA4 hydrolase (rhLTA4H). Vectors were prepared and used to express rhLTA4H essentially as follows: LTA4 hydrolase encoding DNA was amplified by polymerase chain reaction (PCR) using a human placental cDNA library as a template. Oligonucleotide primers for the PCR reaction were based on the 5′-end, and the complement of the 3′-end, of the published nucleotide sequence for the coding region of the human LTA4 hydrolase gene (C. D. Funk et al., Proc. Natl. Acad. Sci. USA 1987, 84:6677-6681). The amplified […] DNA fragment encoding LTA4 hydrolase was isolated and cloned into the pFastBac1 vector (Invitrogen). Recombinant baculovirus was generated as described by the manufacturer, and used to infect Spodoptera frugiperda (Sf-9) cells. Recombinant LTA4 hydrolase enzyme was purified from the infected Sf-9 cells essentially as described by J. K. Gierse et al. (Protein Expr. Purif. 1993, 4(5):358-366). The purified enzyme solution was adjusted to contain 0.29 mg/mL LTA4 hydrolase, 50 mM Tris (pH 8.0),150 mM NaCl, 5 mM dithiothreitol, 50% glycerol, and EDTA-free Complete protease inhibitor cocktail (Roche). The specific activity of the enzyme was about 3.8 μmol/min/mg.
LTA4 substrate was prepared from the methyl ester of LTA4 (Cayman Chemical) by treatment with 67 equiv. of NaOH under nitrogen at rt for 40 min. The LTA4 substrate in its free acid form was kept frozen at −80° C. until needed. Each compound was diluted to different concentrations in assay buffer (0.1 M potassium phosphate (pH 7.4), 5 mg/mL fatty acid free BSA) containing 10% DMSO. A 25-μL aliquot of each compound dilution was incubated for 10 min at rt with an equal volume of assay buffer containing 36 ng of recombinant human LTA4H. The solution was then adjusted to 200 μL with assay buffer. LTA4 (free acid) was thawed and diluted in assay buffer to a concentration of 357 ng/mL, and 25 μL (9 ng) of LTA4 substrate was added to the reaction mixture (total volume=225 μL) at time zero. Each reaction was carried out at rt for 10 min. The reaction was stopped by diluting 10 μL of the reaction mixture with 200 μL of assay buffer. LTB4 was quantifiedin the diluted sample by a commercially available enzyme-linked immunoassay (Cayman Chemical Co.), as recommended by the manufacturer. Positive controls, under essentially identical conditions but without addition of an inhibitor compound, and negative controls, containing all assay components except enzyme, were routinely run in each experiment. IC50 values were determined by fitting the activity data at different compound concentrations to a 4-parameter equation using the Grafit program (Erithacus software).
The IC50 values presented in the table below should be expected to fall within the typical three-fold variability of assays of this type. The values presented here are, in general, an average of one to three determinations.

Compound	IC50
O=C(Nc1ccccc1)Oc1ccc(OCCN2CCC(O)(c3ccc(Cl)c(C(F)(F)F)c3)CC2)cc1 [Example 54, Phenyl-carbamic acid 4-{2-[4-(4-chloro-3-trifluoromethyl-phenyl)-4-hydroxy-piperidin-1-yl]-ethoxy}-phenyl ester]	7 nM
O=C(Nc1ccccc1)Oc1ccc(OCCN2CCCCCC2)cc1 [Example 55, Phenyl-carbamic acid 4-(2-azepan-1-yl-ethoxy)-phenyl ester]	0.5 nM
O=C(Nc1ccccc1)Oc1ccc(OCCN2CCC(O)(c3ccc(Br)cc3)CC2)cc1 [Example 56, Phenyl-carbamic acid 4-{2-[4-(4-bromo-phenyl)-4-hydroxy-piperidin-1-yl]-ethoxy}-phenyl ester]	3 nM
O=C(Nc1ccccc1)Oc1ccc(OCCN2CCC(O)(c3ccc(Cl)cc3)CC2)cc1 [Example 57, Phenyl-carbamic acid 4-{2-[4-(4-chloro-phenyl)-4-hydroxy-piperidin-1-yl]-ethoxy}-phenyl ester]	0.3 nM
O=C(Nc1ccccc1)Oc1ccc(CCN2CCC(O)CC2)cc1 [Example 58, Phenyl-carbamic acid 4-[2-(4-hydroxy-piperidin-1-yl)-ethyl]-phenyl ester]	2 nM
CCN(CCc1ccc(OC(=O)Nc2ccccc2)cc1)C1CCCCC1 [Example 59, Phenyl-carbamic acid 4-[2-(cyclohexyl-ethyl-amino)-ethyl]-phenyl ester]	0.6 nM
O=C(Nc1ccccc1)Oc1ccc(CCN2CCCC2)cc1 [Example 60, Phenyl-carbamic acid 4-(2-pyrrolidin-1-yl-ethyl)-phenyl ester]	4 nM
O=C(Nc1ccccc1)Oc1ccc(CCN2CCCCCC2)cc1 [Example 61, Phenyl-carbamic acid 4-(2-azepan-1-yl-ethyl)-phenyl ester]	2 nM
CCCN(CCc1ccc(OC(=O)Nc2ccccc2)cc1)CC1CC1 [Example 62, Phenyl-carbamic acid 4-[2-(cyclopropylmethyl-propyl-amino)-ethyl]-phenyl ester]	4 nM
CCCCN(CCCC)CCc1ccc(OC(=O)Nc2ccccc2)cc1 [Example 63, Phenyl-carbamic acid 4-(2-dibutylamino-ethyl)-phenyl ester]	0.6 nM
O=C(Nc1cccs1)Oc1ccc(OCCN2CCCCC2)cc1 [Example 65, Thiophen-2-yl-carbamic acid 4-(2-piperidin-1-yl-ethoxy)-phenyl ester]	7 nM
CCOC(=O)C1CCCCN1C1CCN(CCc2ccc(OCCc3ccccc3)cc2)CC1 (stereo not drawn) [Example 66, 1′-[2-(4-Phenethyloxy-phenyl)-ethyl]-[1,4′]bipiperidinyl-2-carboxylic acid ethyl ester]	88 nM
O=C(Oc1ccc(OCCN2CCCCC2)cc1)c1c[nH]c2ccccc12 [Example 68, 1H-Indole-3-carboxylic acid 4-(2-piperidin-1-yl-ethoxy)-phenyl ester]	86 nM
Fc1ccccc1CCOc1ccc(OCCN2CCCCC2)cc1 [Example 70, 1-(2-{4-[2-(2-Fluoro-phenyl)-ethoxy]-phenoxy}-ethyl)-piperidine]	100 nM
OC(COc1ccc(OCCN2CCCCC2)cc1)c1ccccc1 (stereo not drawn) [Example 71, 1-Phenyl-2-[4-(2-piperidin-1-yl-ethoxy)-phenoxy]-ethanol]	5 nM
CCN(CCc1ccc(OCC(=O)c2ccccc2)cc1)C1CCCCC1 [Example 72, 2-{4-[2-(Cyclohexyl-ethyl-amino)-ethyl]-phenoxy}-1-phenyl-ethanone]	10 nM
CCN(CCc1ccc(OCC(O)c2ccccc2)cc1)C1CCCCC1 (stereo not drawn) [Example 73, 2-{4-[2-(Cyclohexyl-ethyl-amino)-ethyl]-phenoxy}-1-phenyl-ethanol]	10 nM

Compound	IC50
Oc1ccc(CCOc2ccc(OCCN3CCCCC3)cc2)cc1 [Example 74, 4-{2-[4-(2-Piperidin-1-yl-ethoxy)-phenoxy]-ethyl}-phenol]	50 nM
COC(=O)C1CCN(CCc2ccc(OCC(=O)c3ccccc3)cc2)CC1 [Example 75, 1-{2-[4-(2-Oxo-2-phenyl-ethoxy)-phenyl]-ethyl}-piperidine-4-carboxylic acid methyl ester]	42 nM
COC(=O)C1CCN(CCc2ccc(OCC(O)c3ccccc3)cc2)CC1 (stereo not drawn) [Example 76, 1-{2-[4-(2—hydroxy-2-phenyl-ethoxy)-phenyl]-ethyl}-piperidine-4-carboxylic acid methyl ester]	3 nM
COC(=O)C1CCN(CCc2ccc(OCCc3ccccc3)cc2)CC1 [Example 77, 1-[2-(4-Phenethyloxy-phenyl)-ethyl]-piperidine-4-carboxylic acid methyl ester]	6 nM
NC(=O)C1CCN(CCc2ccc(OCC(O)c3ccccc3)cc2)CC1 (stereo not drawn) [Example 78, 1-{2-[4-(2-Hydroxy-2-phenyl-ethoxy)-phenyl]-ethyl}-piperidine-4-carboxylic acid amide]	6 nM
O=C1CCCCN1C1CCN(CCc2ccc(OCCc3ccccc3)cc2)CC1 [Example 80, 1′-[2-(4-Phenethyloxy-phenyl)-ethyl]-[1,4′]bipiperidinyl-2-one]	11 nM
O=C1CCCN1C1CCN(CCOc2ccc(OCCc3ccccc3)cc2)CC1 [Example 82, 1-{1-[2-(4-Phenethyloxy-phenoxy)-ethyl]-piperidin-4-yl}-pyrrolidin-2-one]	6 nM
O=C1CN(CCc2ccc(OCCc3ccccc3)cc2)CCN1 [Example 83, 4-[2-(4-Phenethyloxy-phenyl)-ethyl]-piperazin-2-one]	100 nM
CCOC(=O)CCNCCc1ccc(OCCc2ccccc2)cc1 [Example 84, 3-[2-(4-Phenethyloxy-phenyl)-ethylamino]-propionic acid ethyl ester]	10 nM
CCOC(=O)CCN(C)CCc1ccc(OCCc2ccccc2)cc1 [Example 85, 3-{Methyl-[2-(4-phenethyloxy-phenyl)-ethyl]-amino}-propionic acid ethyl ester]	43 nM
O=C(O)C1CCN(CCOc2ccc(OCCc3ccccc3)cc2)CC1 [Example 86, 1-[2-(4-Phenethyloxy-phenoxy)-ethyl]-piperidine-4-carboxylic acid]	17 nM
CCOC(=O)CCN(CCc1ccc(OCCc2ccccc2)cc1)C1CCCCC1 [Example 87, 3-{Cyclohexyl-[2-(4-phenethyloxy-phenyl)-ethyl]-amino}-propionic acid ethyl ester]	5 nM
CN(CCC(=O)O)CCc1ccc(OCCc2ccccc2)cc1 [Example 88, 3-{Methyl-[2-(4-phenethyloxy-phenyl)-ethyl]-amino}-propionic acid]	4 nM
CCOC(=O)CCN(CCc1ccc(OCCc2ccccc2)cc1)C1CCN(C(C)=O)CC1 [Example 90, 3-{(1-Acetyl-piperidin-4-yl)-[2-(4-phenethyloxy-phenyl)-ethyl]-amino}-propionic acid ethyl ester]	21 nM
CC(=O)N1CCC(N(CCC(=O)O)CCc2ccc(OCCc3ccccc3)cc2)CC1 [Example 91, 3-{(1-Acetyl-piperidin-4-yl)-[2-(4-phenethyloxy-phenyl)-ethyl]-amino}-propionic acid]	0.7 nM
O=C(O)C1CCN(CCc2ccc(OCC(O)c3ccccc3)cc2)CC1 (stereo not drawn) [Example 92]	81 nM
